In PubChem BioAssay (NCI):
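Compound exposure: 48 hours, 5 concentrations, 96-well plates. At the TGI there is no net growth.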

Assays:
Experiment in all cases: inhibition of tumour cell growth, NCI panel, 48 h
SK-OV-3 ovarian = test system: SK-OV-3 ovarian
SNB-78 CNS = test system: SNB-78 CNS
SN12C renal = test system: SN12C renal
OVCAR-5 ovarian = test system: OVCAR-5 ovarian
KM12 colon = test system: KM12 colon
DMS 114 small cell lung = test system: DMS 114 small cell lung
SR leukemia = test system: SR leukemia
NCI-H460 lung = test system: NCI-H460 lung
HL-60(TB) leukemia = test system: HL-60(TB) leukemia
A498 renal = test system: A498 renal
SK-MEL-28 melanoma = test system: SK-MEL-28 melanoma
DMS 273 small cell lung = test system: DMS 273 small cell lung
EKVX NSCLC = test system: EKVX NSCLC
HCC-2998 colon = test system: HCC-2998 colon
OVCAR-3 ovarian = test system: OVCAR-3 ovarian
DLD-1 colon = test system: DLD-1 colon
NCI-H23 lung = test system: NCI-H23 lung
SF-295 CNS = test system: SF-295 CNS
SF-539 CNS = test system: SF-539 CNS
SK-MEL-5 melanoma = test system: SK-MEL-5 melanoma
M14 melanoma = test system: M14 melanoma
HT29 colon = test system: HT29 colon
SW-620 colon = test system: SW-620 colon
TK-10 renal = test system: TK-10 renal
CCRF-CEM leukemia = test system: CCRF-CEM leukemia
M19-MEL melanoma = test system: M19-MEL melanoma
NCI-H522 lung = test system: NCI-H522 lung
HCT-15 colon = test system: HCT-15 colon
MALME-3M melanoma = test system: MALME-3M melanoma
CAKI-1 renal = test system: CAKI-1 renal
HCT-116 colon = test system: HCT-116 colon
OVCAR-8 ovarian = test system: OVCAR-8 ovarian
SF-268 CNS = test system: SF-268 CNS
SNB-19 CNS = test system: SNB-19 CNS
UO-31 renal = test system: UO-31 renal
A549 NSCLC = test system: A549 NSCLC
SNB-75 CNS = test system: SNB-75 CNS
MOLT-4 leukemia = test system: MOLT-4 leukemia
HOP-62 NSCLC = test system: HOP-62 NSCLC
OVCAR-4 ovarian = test system: OVCAR-4 ovarian
RXF 393 renal = test system: RXF 393 renal
U251 CNS = test system: U251 CNS
UACC-257 melanoma = test system: UACC-257 melanoma
K-562 leukemia = test system: K-562 leukemia
ACHN renal = test system: ACHN renal
UACC-62 melanoma = test system: UACC-62 melanoma
NCI-H226 lung = test system: NCI-H226 lung
786-0 renal = test system: 786-0 renal
SK-MEL-2 melanoma = test system: SK-MEL-2 melanoma
HOP-92 NSCLC = test system: HOP-92 NSCLC
RPMI-8226 leukemia = test system: RPMI-8226 leukemia
LOX IMVI melanoma = test system: LOX IMVI melanoma
HOP-18 NSCLC = test system: HOP-18 NSCLC
IGROV1 ovarian = test system: IGROV1 ovarian
LXFL 529 NSCLC = test system: LXFL 529 NSCLC
KM20L2 colon = test system: KM20L2 colon
COLO 205 colon = test system: COLO 205 colon

Cc1nc2c(n1-c1ccccc1)C(=O)c1ccccc1C2=O
TGI (SK-OV-3 ovarian): > 100 µM
TGI (SNB-78 CNS): > 100 µM
TGI (SN12C renal): > 100 µM
TGI (OVCAR-5 ovarian): > 100 µM
TGI (KM12 colon): > 100 µM
TGI (DMS 114 small cell lung): 61.3 µM
TGI (SR leukemia): > 100 µM
TGI (NCI-H460 lung): > 100 µM
TGI (HL-60(TB) leukemia): 45.1 µM
TGI (A498 renal): > 100 µM
TGI (SK-MEL-28 melanoma): > 100 µM
TGI (DMS 273 small cell lung): > 100 µM
TGI (EKVX NSCLC): > 100 µM
TGI (HCC-2998 colon): > 100 µM
TGI (OVCAR-3 ovarian): 54.1 µM
TGI (DLD-1 colon): > 100 µM
TGI (NCI-H23 lung): > 100 µM
TGI (SF-295 CNS): > 100 µM
TGI (SF-539 CNS): > 100 µM
TGI (SK-MEL-5 melanoma): > 100 µM
TGI (M14 melanoma): > 100 µM
TGI (HT29 colon): > 100 µM
TGI (SW-620 colon): > 100 µM
TGI (TK-10 renal): > 100 µM
TGI (CCRF-CEM leukemia): > 100 µM
TGI (M19-MEL melanoma): 40.4 µM
TGI (NCI-H522 lung): 71.8 µM
TGI (HCT-15 colon): > 100 µM
TGI (MALME-3M melanoma): 34.2 µM
TGI (CAKI-1 renal): > 100 µM
TGI (HCT-116 colon): 73.1 µM
TGI (OVCAR-8 ovarian): > 100 µM
TGI (SF-268 CNS): > 100 µM
TGI (SNB-19 CNS): > 100 µM
TGI (UO-31 renal): > 100 µM
TGI (A549 NSCLC): > 100 µM
TGI (SNB-75 CNS): > 100 µM
TGI (MOLT-4 leukemia): > 100 µM
TGI (HOP-62 NSCLC): > 100 µM
TGI (OVCAR-4 ovarian): > 100 µM
TGI (RXF 393 renal): > 100 µM
TGI (U251 CNS): > 100 µM
TGI (UACC-257 melanoma): 51.5 µM
TGI (K-562 leukemia): > 100 µM
TGI (ACHN renal): > 100 µM
TGI (UACC-62 melanoma): > 100 µM
TGI (NCI-H226 lung): > 100 µM
TGI (786-0 renal): > 100 µM
TGI (SK-MEL-2 melanoma): > 100 µM

NC(=O)c1csc(C2CCC(CO)O2)n1 (stereo unspecified)
TGI (HOP-92 NSCLC): > 100 µM
TGI (SK-OV-3 ovarian): > 100 µM
TGI (SNB-78 CNS): > 100 µM
TGI (SN12C renal): > 100 µM
TGI (OVCAR-5 ovarian): > 100 µM
TGI (KM12 colon): > 100 µM
TGI (DMS 114 small cell lung): > 100 µM
TGI (NCI-H460 lung): > 100 µM
TGI (HL-60(TB) leukemia): > 100 µM
TGI (A498 renal): > 100 µM
TGI (SK-MEL-28 melanoma): > 100 µM
TGI (DMS 273 small cell lung): > 100 µM
TGI (EKVX NSCLC): > 100 µM
TGI (HCC-2998 colon): > 100 µM
TGI (RPMI-8226 leukemia): > 100 µM
TGI (OVCAR-3 ovarian): > 100 µM
TGI (NCI-H23 lung): > 100 µM
TGI (SF-295 CNS): > 100 µM
TGI (SF-539 CNS): > 100 µM
TGI (M14 melanoma): > 100 µM
TGI (HT29 colon): > 100 µM
TGI (SW-620 colon): > 100 µM
TGI (TK-10 renal): > 100 µM
TGI (LOX IMVI melanoma): > 100 µM
TGI (CCRF-CEM leukemia): > 100 µM
TGI (M19-MEL melanoma): > 100 µM
TGI (HOP-18 NSCLC): > 100 µM
TGI (NCI-H522 lung): > 100 µM
TGI (IGROV1 ovarian): > 100 µM
TGI (HCT-15 colon): > 100 µM
TGI (LXFL 529 NSCLC): > 100 µM
TGI (MALME-3M melanoma): > 100 µM
TGI (CAKI-1 renal): > 100 µM
TGI (HCT-116 colon): > 100 µM
TGI (OVCAR-8 ovarian): > 100 µM
TGI (KM20L2 colon): > 100 µM
TGI (SF-268 CNS): > 100 µM
TGI (SNB-19 CNS): > 100 µM
TGI (UO-31 renal): > 100 µM
TGI (A549 NSCLC): > 100 µM
TGI (COLO 205 colon): > 100 µM
TGI (MOLT-4 leukemia): > 100 µM
TGI (HOP-62 NSCLC): > 100 µM
TGI (OVCAR-4 ovarian): > 100 µM
TGI (U251 CNS): > 100 µM
TGI (UACC-257 melanoma): > 100 µM
TGI (K-562 leukemia): > 100 µM
TGI (ACHN renal): > 100 µM
TGI (UACC-62 melanoma): > 100 µM
TGI (NCI-H226 lung): > 100 µM
TGI (786-0 renal): > 100 µM
TGI (SK-MEL-2 melanoma): > 100 µM
